Biological target: recombinant Human Phosphodiesterase B2 (PDE4B2) (Homo sapiens, UniProt Q07343)
Experiment: Human Phosphodiesterase B2 Alpha Screen Assay
Type: biochemical
Settings: cAMP substrate, Alpha Screen cAMP kit, 60 minutes at room temperature
Method in brief: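 Recombinant human PDE4B2 preincubated 15 min at RT with compound in 50 mM Tris pH 7.5, 8.3 mM MgCl2, 1.7 mM EGTA, 0.01% Brij35, then reacted with cAMP for 60 min at RT. Stopped with EDTA; AlphaScreen beads with biotinylated cAMP incubated 5 h in the dark before reading. IC50 from curve fitting.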

Sequence of recombinant Human Phosphodiesterase B2 (PDE4B2) (Q07343 1-564 isoform Q07343-2): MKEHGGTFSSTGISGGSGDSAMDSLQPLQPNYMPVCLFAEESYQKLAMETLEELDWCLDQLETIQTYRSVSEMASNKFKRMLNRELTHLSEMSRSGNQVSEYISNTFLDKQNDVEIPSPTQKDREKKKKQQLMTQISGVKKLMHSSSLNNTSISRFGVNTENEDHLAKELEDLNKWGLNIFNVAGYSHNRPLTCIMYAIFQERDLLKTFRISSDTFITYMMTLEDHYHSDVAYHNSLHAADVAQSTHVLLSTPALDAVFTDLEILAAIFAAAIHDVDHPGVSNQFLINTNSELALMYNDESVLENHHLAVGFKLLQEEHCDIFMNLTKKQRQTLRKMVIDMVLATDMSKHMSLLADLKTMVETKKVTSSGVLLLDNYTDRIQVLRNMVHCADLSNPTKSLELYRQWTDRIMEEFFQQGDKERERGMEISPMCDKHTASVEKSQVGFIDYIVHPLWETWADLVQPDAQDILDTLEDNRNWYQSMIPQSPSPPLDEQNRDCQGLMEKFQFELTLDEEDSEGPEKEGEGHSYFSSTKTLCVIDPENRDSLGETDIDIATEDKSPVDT

First: N#Cc1ccc(C(=O)N[C@H]2CC[C@@H](n3c(=O)c4cc(F)cnc4n(-c4ccc(F)c(F)c4)c3=O)CC2)cc1 [Example 89, 4-cyano-N-{cis-4-[1-(3,4-difluorophenyl)-6-fluoro-2,4-dioxo-1,4-dihydropyrido[2,3-d]pyrimidin-3(2H)-yl]cyclohexyl}benzamide]
Second: C#Cc1ccc(C(=O)N[C@H]2CC[C@@H](n3c(=O)c4cc(F)cnc4n(-c4ccc(F)c(F)c4)c3=O)CC2)cc1 [Example 102, N-{cis-4-[1-(3,4-difluorophenyl)-6-fluoro-2,4-dioxo-1,4-dihydropyrido[2,3-d]pyrimidin-3(2H)-yl]cyclohexyl}-4-ethynylbenzamide]
The IC50 of the first is 11-fold higher: 10.8 nM for the first, 1 nM for the second.

Going from `O=C(N[C@H]1CC[C@@H](n2c(=O)c3cc(F)cnc3n(-c3ccc(F)c(F)c3)c2=O)CC1)c1ccc2[nH]nnc2c1` [Example 90, N-{cis-4-[1-(3,4-difluorophenyl)-6-fluoro-2,4-dioxo-1,4-dihydropyrido[2,3-d]pyrimidin-3(2H)-yl]cyclohexyl}-1H-1,2,3-benzotriazole-5-carboxamide] to `O=C(N[C@H]1CC[C@@H](n2c(=O)c3cc(F)cnc3n(-c3ccc(F)c(F)c3)c2=O)CC1)c1ccc2ncsc2c1` [Example 91, N-{cis-4-[1-(3,4-difluorophenyl)-6-fluoro-2,4-dioxo-1,4-dihydropyrido[2,3-d]pyrimidin-3(2H)-yl]cyclohexyl}-1,3-benzothiazole-6-carboxamide], the IC50 falls from 6.11 nM to 2.09 nM (2.9-fold). The second is the more potent here.

Compared with `CC1=C(C(=O)N[C@H]2CC[C@@H](n3c(=O)c4cc(F)cnc4n(-c4ccc(F)c(F)c4)c3=O)CC2)SC2=NCCCN21` [Example 92, N-{cis-4-[1-(3,4-difluorophenyl)-6-fluoro-2,4-dioxo-1,4-dihydropyrido[2,3-d]pyrimidin-3(2H)-yl]cyclohexyl}-3-methyl-6,7-dihydro-5H-[1,3]thiazolo[3,2-a]pyrimidine-2-carboxamide], `Cn1cnc(C(=O)N[C@H]2CC[C@@H](n3c(=O)c4cc(F)cnc4n(-c4ccc(F)c(F)c4)c3=O)CC2)c1` [Example 97, N-{cis-4-[1-(3,4-difluorophenyl)-6-fluoro-2,4-dioxo-1,4-dihydropyrido[2,3-d]pyrimidin-3(2H)-yl]cyclohexyl}-1-methyl-1H-imidazole-4-carboxamide] is 3.6-fold lower in IC50: 7.83 nM for the first, 2.18 nM for the second.

Compared with `O=C(N[C@H]1CC[C@@H](n2c(=O)c3cc(F)cnc3n(-c3ccc(F)c(F)c3)c2=O)CC1)c1csnn1` [Example 93, N-{cis-4-[1-(3,4-difluorophenyl)-6-fluoro-2,4-dioxo-1,4-dihydropyrido[2,3-d]pyrimidin-3(2H)-yl]cyclohexyl}-1,2,3-thiadiazole-4-carboxamide], `O=C(N[C@H]1CC[C@@H](n2c(=O)c3cc(F)cnc3n(-c3ccc(F)c(F)c3)c2=O)CC1)c1cc[nH]n1` [Example 98, N-{cis-4-[1-(3,4-difluorophenyl)-6-fluoro-2,4-dioxo-1,4-dihydropyrido[2,3-d]pyrimidin-3(2H)-yl]cyclohexyl}-1H-pyrazole-3-carboxamide] is 4.3-fold higher in IC50: 11.7 nM for the first, 50.1 nM for the second.

`O=C(N[C@H]1CC[C@@H](n2c(=O)c3cc(F)cnc3n(-c3ccc(F)c(F)c3)c2=O)CC1)c1cn[nH]c1` [Example 94, N-{cis-4-[1-(3,4-difluorophenyl)-6-fluoro-2,4-dioxo-1,4-dihydropyrido[2,3-d]pyrimidin-3(2H)-yl]cyclohexyl}-1H-pyrazole-4-carboxamide] and `O=C(N[C@H]1CC[C@@H](n2c(=O)c3cc(F)cnc3n(-c3ccc(F)c(F)c3)c2=O)CC1)c1cc[nH]c1` [Example 96, N-{cis-4-[1-(3,4-difluorophenyl)-6-fluoro-2,4-dioxo-1,4-dihydropyrido[2,3-d]pyrimidin-3(2H)-yl]cyclohexyl}-1H-pyrrole-3-carboxamide] are within 1.5-fold of each other in IC50: 5.31 nM for the first, 6.68 nM for the second.

Going from `O=C(N[C@H]1CC[C@@H](n2c(=O)c3cc(F)cnc3n(-c3ccc(F)c(F)c3)c2=O)CC1)c1ccsc1` [Example 95, N-{cis-4-[1-(3,4-difluorophenyl)-6-fluoro-2,4-dioxo-1,4-dihydropyrido[2,3-d]pyrimidin-3(2H)-yl]cyclohexyl}thiophene-3-carboxamide] to `C=Cc1ccc(C(=O)N[C@H]2CC[C@@H](n3c(=O)c4cc(F)cnc4n(-c4ccc(F)c(F)c4)c3=O)CC2)cc1` [Example 101, N-{cis-4-[1-(3,4-difluorophenyl)-6-fluoro-2,4-dioxo-1,4-dihydropyrido[2,3-d]pyrimidin-3(2H)-yl]cyclohexyl}-4-vinylbenzamide], the IC50 falls from 3.39 nM to 2.05 nM (1.7-fold). The second is the more potent here.

First: O=C(CCN1CCOCC1)N[C@H]1CC[C@@H](n2c(=O)c3cc(F)cnc3n(-c3ccc(F)c(F)c3)c2=O)CC1 [Example 100, N-{cis-4-[1-(3,4-difluorophenyl)-6-fluoro-2,4-dioxo-1,4-dihydropyrido[2,3-d]pyrimidin-3(2H)-yl]cyclohexyl}-3-morpholin-4-ylpropanamide]
Second: O=C(N[C@H]1CC[C@@H](n2c(=O)c3cc(F)cnc3n(-c3ccc(F)c(F)c3)c2=O)CC1)c1nc2ncccn2n1 [Example 107, N-{cis-4-[1-(3,4-difluorophenyl)-6-fluoro-2,4-dioxo-1,4-dihydropyrido[2,3-d]pyrimidin-3(2H)-yl]cyclohexyl}[1,2,4]triazolo[1,5-a]pyrimidine-2-carboxamide]
The IC50 of the first is 14-fold lower: 2.12 nM for the first, 30.1 nM for the second.

Compared with `O=C(N[C@H]1CC[C@@H](n2c(=O)c3cc(F)cnc3n(-c3ccc(F)c(F)c3)c2=O)CC1)c1cc2cccnc2[nH]1` [Example 103, N-{cis-4-[1-(3,4-difluorophenyl)-6-fluoro-2,4-dioxo-1,4-dihydropyrido[2,3-d]pyrimidin-3(2H)-yl]cyclohexyl}-1H-pyrrolo[2,3-b]pyridine-2-carboxamide], `O=C(N[C@H]1CC[C@@H](n2c(=O)c3cc(F)cnc3n(-c3ccc(F)c(F)c3)c2=O)CC1)c1cc2cccnc2s1` [Example 105, N-{cis-4-[1-(3,4-difluorophenyl)-6-fluoro-2,4-dioxo-1,4-dihydropyrido[2,3-d]pyrimidin-3(2H)-yl]cyclohexyl}thieno[2,3-b]pyridine-2-carboxamide] is 8.1-fold higher in IC50: 0.741 nM for the first, 6.03 nM for the second. The first is the more potent here.

First: O=C(N[C@H]1CC[C@@H](n2c(=O)c3cc(F)cnc3n(-c3ccc(F)c(F)c3)c2=O)CC1)c1nc2ccccc2s1 [Example 104, N-{cis-4-[1-(3,4-difluorophenyl)-6-fluoro-2,4-dioxo-1,4-dihydropyrido[2,3-d]pyrimidin-3(2H)-yl]cyclohexyl}-1,3-benzothiazole-2-carboxamide]
Second: O=C(N[C@H]1CC[C@@H](n2c(=O)c3cc(F)cnc3n(-c3ccc(F)c(F)c3)c2=O)CC1)c1cc2nccnc2s1 [Example 106, N-{cis-4-[1-(3,4-difluorophenyl)-6-fluoro-2,4-dioxo-1,4-dihydropyrido[2,3-d]pyrimidin-3(2H)-yl]cyclohexyl}thieno[2,3-b]pyrazine-6-carboxamide]
The IC50 of the first is 1.9-fold lower: 2.09 nM for the first, 3.89 nM for the second.
